{"source": "patent US9512152B2", "about": "“Phospholipid compound containing unsaturated fatty acid derivative having cyclopropane ring” (NISHIZAKI BIOINFORMATION RESEARCH INSTITUTE, priority 2013, dated 2016)", "key": {"[1]": {"tested_on": "3T3L1-GLUT4myc adipocytes having a knocked-down insulin receptor", "assay": "GLUT4 trafficking in adipocytes with knocked-down insulin receptor", "type": "cell-based", "conditions": "1 μM, 20 min, absence of insulin, FIG. 12", "procedure": "3T3L1-GLUT4myc adipocytes were incubated in Krebs-Ringer-HEPES buffer [136 mM NaCl, 4.7 mM KCl, 1.25 mM CaCl2, 1.25 mM MgSO4 and 20 mM HEPES, pH 7.5] containing 0.2% (w/v) bovine serum albumin and added with 10 mM glucose at 37° C. for 1 hr. The cells were incubated in the presence or absence of insulin, phospholipid or a derivative thereof for 20 min. Then, the cells were homogenized by sonication in an ice-cooled mitochondria buffer containing 1% (v/v) protease inhibitor cocktail [210 mM mannitol, 70 mM sucrose, and 1 mM ethylenediaminetetraacetic acid (EDTA), 10 mM HEPES, pH 7.5]. Sequentially, the homogenate was centrifuged at 4° C. for 5 min at 3,000 rpm. The supernatant was further centrifuged at 4° C. for 15 min at 11,000 rpm. The recovered supernatant was ultracentrifuged at 4° C. for 60 min at 100,000 g, and separated into a cytoplasm fraction and a cellular membrane fraction. […] The protein concentration of each fraction was measured using BCA protein assay kit (Thermo Fisher Scientific, Waltham, Mass., USA). […] The immunoreactivity was detected using ECL kit (Invitrogen), and visualized using a chemical luminescence detection system (chemiluminescence detection system; GE Healthcare, Piscataway, N.J., USA). The signal density was measured using an image analysis software (Image Gauge software; GE Healthcare). […]"}, "[2]": {"target": "T1, Human PTP1B (Homo sapiens, UniProt P18031)", "T1 construct": "made in house; host or cells: E. coli BL21(DE3)", "T1 sequence (P18031 1-435)": "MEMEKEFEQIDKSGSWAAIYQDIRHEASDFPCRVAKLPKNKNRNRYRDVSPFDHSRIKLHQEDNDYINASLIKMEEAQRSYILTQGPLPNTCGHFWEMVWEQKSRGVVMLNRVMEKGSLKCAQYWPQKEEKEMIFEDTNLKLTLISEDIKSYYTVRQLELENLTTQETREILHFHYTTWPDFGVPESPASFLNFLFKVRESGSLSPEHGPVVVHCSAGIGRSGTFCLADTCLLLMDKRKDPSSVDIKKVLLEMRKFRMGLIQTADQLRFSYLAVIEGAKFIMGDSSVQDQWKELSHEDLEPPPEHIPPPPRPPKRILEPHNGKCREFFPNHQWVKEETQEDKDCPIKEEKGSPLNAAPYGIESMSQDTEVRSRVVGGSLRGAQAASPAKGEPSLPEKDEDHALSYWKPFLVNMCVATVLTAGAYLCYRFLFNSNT", "assay": "Assay of PTP1B activity under cell-free conditions (p-NPP substrate)", "type": "biochemical", "conditions": "FIG. 2", "procedure": "Protein tyrosine phosphatase was measured under cell-free conditions by a method partially modified from the methods described in previous reports (Baba Y, et al. J Am Chem Soc 2003; 125; 9740-9749; Rice R L, et al. Biochemistry 1997; 36: 15965-15974). Human PTP1B was cloned to a pGEX-6P-3 vector having a GST tag at the NH2 terminal, and expressed in competent E. coli BL21(DE3) suitable for transformation and protein expression. GST fusion PTP1B was affinity-purified using glutathione sepharose 4B (GE Healthcare Bio-Science KK, Tokyo, Japan). It was reacted with p-nitrophenylphosphate (p-NPP) (Sigma, St. Louis, Mo., USA) as a substrate and PTP1B activity was measured. The enzyme was pre-incubated in a reaction medium [50 mM HEPES, 1 mM EDTA, 50 mM NaCl, 1 mM dithiothreitol, pH 7.2] at 37° C. for 30 min in the presence or absence of diDCP-LA-PE and with or without addition of Na3VO4 which is a PTP1B inhibitor. Then, p-NPP (10 mM) was added to the reaction medium, and the mixture was incubated for 60 min. The reaction was discontinued by the addition of 0.1N NaOH. Dephosphorylated p-NPP, i.e., p-NP, was quantified at an absorbance of 405 nm by using SpectraMax PLUS384 (Molecular Devices, Sunnyvale, Calif., USA)."}, "[3]": {"tested_on": "STZ-treated C57BL/6J mouse", "assay": "Oral glucose tolerance test in streptozotocin-treated type 1 diabetes model mouse", "type": "in vivo", "conditions": "oral 1 mg/kg, 4 consecutive days before OGTT and 30 min before glucose, FIG. 11", "procedure": "C57BL/6J mouse (male, 8-week-old) (Japan SLC Inc.; Shizuoka, Japan) was used. Streptozotocin (STZ; 250 mg/kg) or saline as a control was injected intraperitoneally. After 4 days from the injection, an oral glucose tolerance test (OGTT) was performed."}, "[4]": {"tested_on": "3T3L1-GLUT4myc adipocytes", "assay": "Analysis of GLUT4 trafficking (cellular membrane transport of GLUT4)", "type": "cell-based", "conditions": "20 min", "procedure": "3T3L1-GLUT4myc fibroblast strain expressing GLUT4myc was used. The cells are constructed by inserting human c-MYC epitope (14 amino acids) into the first ectodomain. The cells were cultured in Dulbecco's Modified Eagles Medium (DMEM) added with 10% (v/v) bovine serum, penicillin (final concentration, 100 U/ml) and streptomycin (final concentration, 0.1 mg/ml) in a humid environment under 5% CO2 and 95% air at 37° C. When the cells reached confluence (day 0), the medium was exchanged with DMEM added with 10% (v/v) fetal bovine serum (FBS), 1 μM dexamethasone, 0.5 mM 3-isobutyl-methyl-xanthine and 0.1 mg/ml insulin to allow for differentiation from fibroblast into adipocyte. The medium was exchanged with DMEM added with 10% (v/v) FBS on day 3, day 7 and day 11. On day 14, the cells were used for the experiment.\n3T3L1-GLUT4myc adipocytes were incubated in Krebs-Ringer-HEPES buffer [136 mM NaCl, 4.7 mM KCl, 1.25 mM CaCl2, 1.25 mM MgSO4 and 20 mM HEPES, pH 7.5] containing 0.2% (w/v) bovine serum albumin and added with 10 mM glucose at 37° C. for 1 hr. The cells were incubated in the presence or absence of insulin, phospholipid or a derivative thereof for 20 min. Then, the cells were homogenized by sonication in an ice-cooled mitochondria buffer containing 1% (v/v) protease inhibitor cocktail [210 mM mannitol, 70 mM sucrose, and 1 mM ethylenediaminetetraacetic acid (EDTA), 10 mM HEPES, pH 7.5]. Sequentially, the homogenate was centrifuged at 4° C. for 5 min at 3,000 rpm. The supernatant was further centrifuged at 4° C. for 15 min at 11,000 rpm. […] The protein concentration of each fraction was measured using BCA protein assay kit (Thermo Fisher Scientific, Waltham, Mass., USA). […] The immunoreactivity was detected using ECL kit (Invitrogen), and visualized using a chemical luminescence detection system (chemiluminescence detection system; GE Healthcare, Piscataway, N.J., USA). The signal density was measured using an image analysis software (Image Gauge software; GE Healthcare)."}}}
{"smiles": "CCCCCC1CC1CC1CC1CCCCCCCC(=O)OC[C@H](COP(=O)(O)OCCN)OC(=O)CCCCCCCC1CC1CC1CC1CCCCC", "note": "(some centres unmarked) [diDCP-LA-PE, 1,2-o-bis-[8-{2-(2-pentyl-cyclopropylmethyl)-cyclopropyl}-octanoyl]-sn-glycero-3-phosphatidylethanolamine]", "values": [{"measurement": "Transfer of GLUT4 to cellular membrane, insulin receptor knock-down", "setting": "[1]", "result": "can promote transfer of GLUT4 to a cellular membrane in an insulin receptor independent manner"}, {"measurement": "PTP1B inhibition (phosphatase activity, dephosphorylated p-NPP)", "setting": "[2]", "result": "inhibits PTP1B in a concentration-dependent manner"}, {"measurement": "Suppression of increase in blood glucose", "setting": "[3]", "result": "significantly suppresses an increase in the blood glucose"}, {"measurement": "Promotion of cellular membrane transport of GLUT4", "setting": "[4]; 1 μM, FIG. 7", "result": "an action to promote cellular membrane transport of GLUT4"}, {"measurement": "Concentration dependence of cellular membrane transport of GLUT4", "setting": "[4]; given concentrations, FIG. 8", "result": "promotes cellular membrane transport of GLUT4 in a concentration-dependent manner"}]}
